Results on 79 compounds are retold here after the METLIN SMRT retention time set (Domingo-Almenara et al. 2019).

This data set can be described thus: gradient 5% acetonitrile 3 min, to 50% in 2 min, to 85% in 15 min, held 3 min, 100 µL/min. The settings on record: column: Zorbax Extend-C18 2.1 x 50 mm; eluents: water / acetonitrile, 0.1% formic acid. In outline: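 Each retention time is based on an adduct peak selected computationally and verified by manual inspection. Measurements used HPLC–quadrupole time-of-flight mass spectrometry in positive and negative ionization mode on mixtures of ~100 pure standards. Chromatography ran on a Zorbax Extend-C18 column (2.1 × 50 mm, 1.8 μm) at 100 μL/min with water and acetonitrile, each containing 0.1% formic acid, and dead and dwell volumes of 40 μL and 900 μL.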
The compound `Cc1cc(N2CCC(NC(=O)Nc3ccc(C)c(F)c3)C2=O)ccc1F` (centres undefined) gave an RP-LC retention time of 900 s. The value for `Cc1ccc(CNC(=O)C2CCN(c3cncnc3N3CCCC3)CC2)cc1` was 662 s. The value for `CCOC(=O)C(=O)Cc1nc2ccccc2s1` was 871 s; that for `COc1cccc(N2CCN(S(=O)(=O)c3nn(C)cc3C(=O)NC3CC3)CC2)c1` was 818 s. The value for `Cc1ncoc1C(=O)NCC1Cn2cccc2C(=O)N1C` (centres undefined) was 583 s; that for `Cc1noc(-c2cccc(OC3CN(S(=O)(=O)c4cn(C)cn4)C3)c2)n1` was 746 s.

`Cn1nc(C(=O)N2CCCCC2)c2c1CCN(C(=O)CCC(=O)N1CCC(N3CCCCC3)CC1)C2` returned an RP-LC retention time of 586 s.

In turn, `COc1ccccc1NC(=O)Cn1c(=O)n(-c2ccccc2)c(=O)c2c1cc(C)n2C` yielded an RP-LC retention time of 971 s.

In turn, `CCc1ccc(NC(=O)N2CCN(Cc3nc4ccccc4o3)CC2)cc1` returned an RP-LC retention time of 738 s. The value for `Fc1ccc(Cn2cc(-c3noc(-c4ccc5cc[nH]c5c4)n3)nn2)cc1` was 952 s; that for `Cc1ccccc1NC(=O)c1cc(C(C)(C)C)n2nccc2n1` was 1310 s. The value for `CCOCCCNC(=O)c1nnc(-c2ccc(S(=O)(=O)N3CCCC3)cc2)o1` was 786 s; that for `Cc1ccc(NC(=O)CN2CCc3[nH]c4c(C)ccc(F)c4c(=O)c3C2)cc1F` was 638 s; that for `Cc1ccc(CN2CCn3c(nn(C)c3=O)C2)cc1C` was 662 s. The value for `CN(C)CCNC(=O)CS(=O)Cc1cnn(-c2ccccc2)c1-n1cccc1` (centres undefined) was 603 s; that for `COc1cc(OC)cc(C(=O)NC2CCN(c3cc(-c4ccc(F)cc4)[nH]n3)C2)c1` (centres undefined) was 745 s. On to `CCc1noc(-c2ccnc(-n3ncc(C(=O)N4CCOCC4)c3C)c2)n1`, for which the RP-LC retention time was determined as 760 s.

Turning to `Cc1ccc(C)c(NC(=O)c2cn(-c3ncccc3-c3nc(C4CC4)no3)cn2)c1`, the RP-LC retention time was found to be 973 s. Turning to `CC(C)Oc1ccc(CNS(=O)(=O)c2cc3c(s2)CCN(C(=O)C2CCC2)C3)cc1`, the RP-LC retention time turned out to be 1010 s. The value for `COc1ccc(-n2c(N)cc(=O)nc2SCC(=O)Nc2cc(C)on2)cc1` was 588 s; that for `CCOC(=O)c1c(C)c(CCC(=O)N2CCCCCC2)n(C)c1C` was 897 s; that for `Cc1ccc(NC(=O)C2CCCN2S(=O)(=O)c2cc3c(cc2C)NC(=O)C(C)O3)cc1C` (centres undefined) was 842 s. The value for `Cc1ccc(C)c(S(=O)(=O)N2CCC3(CC2)NCCCN=C3NC2CCCCC2)c1` was 648 s; that for `CCOc1ccc(NS(=O)(=O)c2cc(C(=O)Nc3ccc(C)c(C)c3)n[nH]2)cc1` was 902 s. Compound `COc1ccc(N2CCN(c3cc(SCC(=O)NCc4ccc(Cl)cc4)ncn3)CC2)cc1` gave an RP-LC retention time of 908 s. The value for `COC(=O)c1sccc1NC(=O)Cn1c(C)cc(C)c(-c2nc(-c3ccc(C)cc3)no2)c1=O` was 1110 s; that for `Cc1nnc(-c2ccc3ccn(CC(=O)Nc4ccccc4)c3c2)o1` was 778 s; that for `COCCNC(=O)c1ccccc1-c1ocnc1C(=O)OC` was 611 s. Regarding `CCN1CCN(CCNC(=O)C(C)C2CCN(C(=O)c3cc4cc(Cl)ccc4[nH]3)CC2)CC1` (centres undefined), the RP-LC retention time was 630 s. On to `Cc1ccc(S(=O)(=O)N2CC(F)(F)C[C@H]2CN2CCc3ccccc3C2)cc1`, for which the RP-LC retention time turned out to be 766 s.

Turning to `COc1cc2c(cc1OC)C(C(=O)NCCN(C)C)C(c1ccccc1F)N(C)C2=O` (centres undefined), the RP-LC retention time was 599 s.

`COc1cccc(S(=O)(=O)N2CCc3nc[nH]c3C2)c1` displayed an RP-LC retention time of 602 s. `CC(C)c1nncn1C1CCN(S(=O)(=O)Cc2cccc(Cl)c2)CC1` gave an RP-LC retention time of 736 s. The value for `COc1ccc(CCNC(=O)c2ccc(-n3nc(C)cc3C)nc2)cc1OC` was 758 s; that for `COc1ccccc1CNS(=O)(=O)c1ccc(-c2c(C)noc2C)cc1` was 922 s; that for `O=C(Nc1ccccc1Cl)N1CCc2nc[nH]c2C1` was 570 s. The value for `CCc1ccc(NC(=O)N2CCC(n3cnc4cc(F)ccc4c3=O)CC2)cc1` was 867 s; that for `Cc1cc(S(=O)(=O)N2CCN(c3nc4ccncc4n(C)c3=O)CC2)ccc1F` was 682 s.

In turn, `Fc1ccc(-c2nc(-c3cn(Cc4cccc(F)c4)nn3)no2)cc1` had an RP-LC retention time of 1010 s.

For the compound `O=C(Nc1ccc(F)c(Cl)c1)N1CCC(n2cnc3ccc(F)cc3c2=O)CC1`, the RP-LC retention time stood at 860 s. The compound `CCn1ccc2c(cc(C(=O)Nc3ccc(OC)cc3OC)n2C)c1=O` displayed an RP-LC retention time of 692 s. The value for `O=C(Nc1ccc(Br)cc1)C1CCCN1S(=O)(=O)c1ccc(F)cc1` (centres undefined) was 967 s; that for `CC(=O)Nc1ccc(N2CCN(C3CCCCC3)CC2)cc1C(=O)O` was 588 s; that for `O=C1c2cccc([N+](=O)[O-])c2C(=O)N1c1nc(-c2ccccc2)cs1` was 958 s.

Turning to `Cc1nnc(N2CCCC(C(=O)NCc3ccccc3)C2)c2nn(-c3ccc(Cl)cc3)c(C)c12` (centres undefined), the RP-LC retention time turned out to be 765 s. In turn, `COc1cccc2c1oc(=O)c1c(NC(C)=O)nc3c(c12)CCCCC3` registered an RP-LC retention time of 1020 s. `Cn1cc(C(=O)NCc2ccc(F)cc2)c(S(=O)(=O)N2CCSCC2)n1` showed an RP-LC retention time of 845 s. Regarding `O=C(NCCN1CCN(C(=O)CSc2nc3ccccc3s2)CC1)c1cccs1`, the RP-LC retention time came out at 577 s. The value for `O=C(Nc1cc(-c2cccnc2)no1)c1ccc2c(c1)OCO2` was 710 s. The value for `Cc1cc(Cl)ccc1NC(=O)N1CCN(C2=CC3=NCC(C)N3C=N2)CC1` (centres undefined) was 814 s; that for `O=C(Cn1cnc2nc(N3CCC(C(=O)NC4CC4)CC3)sc2c1=O)Nc1ccc2c(c1)OCO2` was 637 s.

`COCCCNC(=O)C1(C)Cn2nc(-c3ccccc3)cc2C(=O)N1Cc1ccc(OC)cc1` (centres undefined) yielded an RP-LC retention time of 865 s. In turn, `CCCS(=O)(=O)N1CCC2(CC1)CC(N1CCN(c3ccccc3)CC1)CCO2` (centres undefined) displayed an RP-LC retention time of 538 s. The value for `COc1ccc(C(O)CN2CCN(c3ccccc3F)CC2)cc1` (centres undefined) was 660 s; that for `COc1cccc(-c2nc(Cn3ccn4nc(-c5ccccc5)cc4c3=O)c(C)o2)c1OC` was 1020 s. The value for `Cc1noc(-c2cc(=O)n(CC(=O)Nc3cccc(Cl)c3)c3ccccc23)n1` was 927 s. The value for `CCOc1cc(-c2cccc(Cl)c2)nc2ccc(C(=O)N3CCN(c4ccccn4)CC3)cc12` was 692 s. The compound `CCOC(=O)c1[nH]c2ccccc2c1NC(=O)c1ccc(N2C(=O)CCC2=O)cc1` yielded an RP-LC retention time of 699 s.

For `CCCNC(=O)CCc1c(-c2ccc(Br)cc2)nc2ccccn12`, the RP-LC retention time was found to be 624 s. The compound `CSc1ccccc1CN1CCC(CNC(=O)c2cc(=O)c3ccccc3o2)CC1` returned an RP-LC retention time of 564 s. The value for `Cc1nc(-c2cn(C(C)C)c3ncccc23)sc1C(=O)N1CCCCC1C` (centres undefined) was 1030 s. The value for `CN(C)S(=O)(=O)c1ccc(-c2nnc(C(=O)NCc3ccc(F)cc3)o2)cc1` was 844 s; that for `CCCNC(=O)C1CCCN(C(=O)c2[nH]c(C)c(C)c2C)C1` (centres undefined) was 721 s; that for `Cc1cccc(C)c1NC(=O)Cn1c(=O)n(Cc2ccc(F)cc2)c(=O)c2nccnc21` was 781 s. The value for `C=CCNc1nc(-c2cccc([N+](=O)[O-])c2)cs1` was 949 s; that for `Cc1ccc(-c2noc(C3CCCN3S(=O)(=O)c3cc(C)ccc3C)n2)cc1` (centres undefined) was 1240 s; that for `Cc1nnc(-c2ccc3ccn(CC(=O)N4CCN(c5ccccc5F)CC4)c3c2)o1` was 867 s.

As to `COc1ccc(-n2c(=O)c(C(=O)NC3CCCCC3)c(O)c3cccnc32)cc1`, the RP-LC retention time turned out to be 1300 s. The value for `COc1ccc(N2CCN(CCNC(=O)c3ccc(Br)o3)CC2)cc1` was 583 s; that for `COC(=O)c1ccc(C(=O)NCC2(O)CCOCC2)cc1` was 584 s.

Compound `COc1cc2c(cc1OC)C(COc1cccc(C(F)(F)F)c1)NCC2` (centres undefined) displayed an RP-LC retention time of 586 s. The value for `Cc1csc(-c2cc(S(=O)(=O)N3CCC(Cc4ccccc4)CC3)c(C)n2C)n1` was 1300 s; that for `CCc1nnc(C2CN(C)CC23CCN(S(=O)(=O)c2cccc(Cl)c2)CC3)o1` (centres undefined) was 645 s. In the case of `CCCNC(=O)c1cn(-c2ccc(NC(=O)CC)cn2)cn1`, the RP-LC retention time amounted to 636 s. As for `O=C(C1CCN(Cc2cc3ccccc3n2Cc2ccccc2)CC1)N1CCN(C2CCCCC2)CC1`, the RP-LC retention time worked out at 634 s. The value for `O=C(NCCC1CCN(C(=O)Nc2cc(F)ccc2F)CC1)c1ccco1` was 758 s.

As to `Cc1ccccc1NS(=O)(=O)c1cc2n(c1)CCCNC2=O`, the RP-LC retention time stood at 646 s.

Compound `Cn1c(C2CCN(C(=O)Nc3cc(F)cc(F)c3)CC2)cc(=O)n2nccc12` registered an RP-LC retention time of 695 s. The value for `CC(C)C(=O)Nc1ccc(C2(C(=O)NCc3ccc(F)c(Cl)c3)CCC2)cc1` was 927 s.
